From US6479509B1, “Method of promoting smoking cessation” (priority 2000, dated 2002)
Entries after “also recorded” stand apart in the source; their conditions may differ.

Legend:
[1] = test system: nicotine-induced seizures; assay: Nicotine-induced seizure activity; type: in vivo, mice; settings: saline pretreatment, nicotine 9 mg/kg challenge
Protocol: Seizure Activity. Following s.c. injection of nicotine at a dose of 9 mg/kg, each animal was placed in a 30 cm×30 cm Plexiglass cage and observed for 5 min. […] This amount of time was chosen because seizures occur very quickly after nicotine administration. Results are expressed as percentage seizure.

[2] = test system: nicotine-induced antinociception; assay: Blockade of nicotine-induced antinociception, tail-flick test; type: in vivo, mice; settings: for AD50, nicotine-induced antinociception in tail-flick test: s.c. administration; for AD50, nicotine-induced antinociception in tail-flick test / Blockade of nicotine-induced antinociception (in words) / Relative potency in blocking nicotine's antinociceptive effect (in words, comparator in the value) / AD50 Tail-Flick: mice; for Blockade of nicotine-induced antinociception (in words) / Relative potency in blocking nicotine's antinociceptive effect (in words, comparator in the value): tail-flick; for Tail-flick, % blockade @ dose: s.c.; for AD50 Tail-Flick: blocking antinociception of nicotine 2.5 mg/kg, systemic administration
Protocol: Anitinociception. The tail-flick method of D'Amour and Smith (1941) as modified by Dewey et al. (1970) was used. A control response (2-4 s) was determined for each animal before treatment, and a test latency was determined after drug administration. To minimize tissue damage, a maximum latency of 10 s was imposed. Antinociceptive response was calculated as percent maximum possible effect (% MPE), where % MPE=[((test-control)/(10-control))×100], Groups of 8 to 12 animals were used for each dose and for each treatment. Mice were tested 5 min after nicotine administration for the dose-response evaluation. Antagonism studies were carried out by pretreating the mice s.c. with either saline or various drugs at different times before nicotine. The animals were tested 5 min after administration of nicotine.
(§1) Data were analyzed statistically by an analysis of variance followed by the Fisher's P least-significant difference multiple comparison test. The null hypothesis was rejected at the […].

[3] = test system: discriminative stimulus effect of nicotine; assay: Nicotine drug discrimination; type: in vivo; settings: saline pretreatment, nicotine 0.4 mg/kg, rats
Protocol: Rats were individually housed in a temperature-controlled environment and were maintained on a diet (Agway Rodent Chow) that restricted their body weight to approximately 85% of their free feeding weight. Water was available ad libitum in the home cages. A two-lever operant drug nation paradigm (VI 15) was carried out in eight operant chambers (4 Lafayette model 80001 and 4 BRS/LVIE model s 002). Reinforcement was a Bioserv 45-mg precision dustless pellet. Data were collected automatically by two Commodore 64 microcomputers.
Rats were placed in an operant chamber 5 min after injections. […] Animals were required to meet a criterion of three successive days of 80% or greater correct-lever responding before testing was initiated. Injections were given 5 min before placing the animal in the operant chamber. The schedule of injections, was determined using a Latin Square design. Dose-response curves were determined for nicotine 5 min after s.c. injections.

[4] = test system: cocaine-induced hyperactivity; assay: Locomotor activity, cocaine-induced hyperactivity; type: in vivo, mice; settings: doses higher than 1 mg/kg
Protocol: Locomotor Activity. […] Interruptions of the photocell beams (two banks of eight cells each) were then recorded for the next 30 min. Data were expressed as number of photocell interruptions.

Dopamine transporter = target: T1, Dopamine transporter (Rattus norvegicus, UniProt P23977); settings: brain; read-out: Dopamine [3H]WIN 35,428 IC50; cited from earlier work
T1 construct: from tissue; host or cells: brain
T1 sequence (P23977 whole entry): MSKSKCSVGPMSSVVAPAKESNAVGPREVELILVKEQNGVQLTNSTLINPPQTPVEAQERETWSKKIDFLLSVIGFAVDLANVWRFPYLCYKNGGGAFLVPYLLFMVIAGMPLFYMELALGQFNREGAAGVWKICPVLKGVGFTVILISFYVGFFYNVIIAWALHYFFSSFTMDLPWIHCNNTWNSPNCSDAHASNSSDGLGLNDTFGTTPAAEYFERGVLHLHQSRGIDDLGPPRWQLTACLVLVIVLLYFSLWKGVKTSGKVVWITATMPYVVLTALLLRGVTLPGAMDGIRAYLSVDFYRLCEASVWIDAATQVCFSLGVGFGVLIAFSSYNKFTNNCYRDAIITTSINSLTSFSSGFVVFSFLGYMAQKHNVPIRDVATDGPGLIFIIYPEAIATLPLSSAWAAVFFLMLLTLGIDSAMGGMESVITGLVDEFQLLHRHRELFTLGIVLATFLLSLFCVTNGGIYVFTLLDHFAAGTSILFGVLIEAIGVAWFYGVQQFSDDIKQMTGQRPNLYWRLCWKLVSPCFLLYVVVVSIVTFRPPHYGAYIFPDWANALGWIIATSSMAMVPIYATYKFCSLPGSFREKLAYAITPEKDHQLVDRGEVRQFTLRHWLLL

[5] = target: T2, Norepinephrine transporter (Rattus norvegicus, UniProt Q63380); settings: brain; read-out: Norepinephrine [3H]Nisoxetime IC50; cited from earlier work
T2 construct: from tissue; host or cells: brain
T2 sequence (Q63380 1-617): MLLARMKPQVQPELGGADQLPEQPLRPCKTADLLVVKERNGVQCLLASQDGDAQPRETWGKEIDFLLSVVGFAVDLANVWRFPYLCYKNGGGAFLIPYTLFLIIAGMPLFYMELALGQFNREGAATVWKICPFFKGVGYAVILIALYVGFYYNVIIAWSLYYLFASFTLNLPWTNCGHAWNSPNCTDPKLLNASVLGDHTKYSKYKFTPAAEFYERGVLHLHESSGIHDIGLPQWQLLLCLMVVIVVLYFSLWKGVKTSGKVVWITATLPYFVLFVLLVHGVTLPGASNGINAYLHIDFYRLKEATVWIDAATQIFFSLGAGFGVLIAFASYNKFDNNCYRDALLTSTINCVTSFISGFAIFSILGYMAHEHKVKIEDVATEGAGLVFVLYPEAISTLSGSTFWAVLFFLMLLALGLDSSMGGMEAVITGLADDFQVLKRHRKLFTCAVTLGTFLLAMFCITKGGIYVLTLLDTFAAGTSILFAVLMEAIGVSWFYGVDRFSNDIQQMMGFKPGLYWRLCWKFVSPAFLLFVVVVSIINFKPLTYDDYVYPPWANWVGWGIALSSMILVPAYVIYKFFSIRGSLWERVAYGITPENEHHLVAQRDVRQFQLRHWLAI

Serotonin transporter = target: T3, Serotonin transporter (Rattus norvegicus, UniProt P31652); settings: brain; read-out: Serotonin [3H]Paroxetine IC50; cited from earlier work
T3 construct: from tissue; host or cells: brain
T3 sequence (P31652 whole entry): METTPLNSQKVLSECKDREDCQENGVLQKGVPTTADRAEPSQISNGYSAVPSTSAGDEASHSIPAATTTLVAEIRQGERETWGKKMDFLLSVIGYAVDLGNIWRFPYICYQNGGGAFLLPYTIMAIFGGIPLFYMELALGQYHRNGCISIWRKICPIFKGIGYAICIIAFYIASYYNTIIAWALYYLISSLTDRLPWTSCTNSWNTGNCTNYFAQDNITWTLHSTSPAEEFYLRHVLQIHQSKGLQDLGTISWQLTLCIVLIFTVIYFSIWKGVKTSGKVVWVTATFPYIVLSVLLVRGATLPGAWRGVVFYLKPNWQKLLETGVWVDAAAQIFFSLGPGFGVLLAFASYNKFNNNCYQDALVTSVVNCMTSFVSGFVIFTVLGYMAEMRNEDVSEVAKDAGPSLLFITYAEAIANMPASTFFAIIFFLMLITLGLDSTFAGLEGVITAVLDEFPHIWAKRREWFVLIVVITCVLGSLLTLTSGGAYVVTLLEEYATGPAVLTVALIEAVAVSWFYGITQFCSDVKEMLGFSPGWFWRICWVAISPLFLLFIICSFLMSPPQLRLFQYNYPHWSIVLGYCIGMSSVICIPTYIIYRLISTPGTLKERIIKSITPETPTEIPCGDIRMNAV

[6] = test system: nicotine-induced hypothermia; assay: Blockade of nicotine-induced hypothermia (body temperature); type: in vivo, mice; settings: mice; for AD50 Hypothermia: blocking nicotine-induced hypothermia, systemic administration
Protocol: Body Temperature. Rectal temperature was measured by a thermistor probe (inserted 24 mm) and digital thermometer (Yellow Springs Instrument Co., Yellow Springs, Ohio). Readings were taken just before and at 30 min after the s.c. injection of nicotine. For antagonism studies, mice were pretreated with either saline or various drugs 10 min before nicotine. The difference in rectal temperature before and after treatment was calculated for each mouse. The ambient temperature of the laboratory varied from 21 to 24° C. from day to day.
as §1

For `CN1CCCC1c1cccnc1` (single isomer, unassigned; (-)) [Nicotine, (−)-Nicotine, reference compound], the “% Seizures (Mean)” value [1] was 100%, the ED50 ([2]; Mus musculus, read-out: ED50 value of nicotine, antinociception) was 1.5 mg/kg and the “Drug discrimination % Test (Mean ± SE)” value [3] was 87 ± 8%.

With `CC(N)Cc1ccccc1` (stereo not drawn) [Amphetamine, reference compound] the “AD50, nicotine-induced antinociception in tail-flick test” value (shortened to “AD50, nicotine-induced antinociception”) [2] was 36.9 μmol/hg and the “Blockade of nicotine-induced antinociception (in words)” value [2] was “blocked nicotine-induced antinociception”.

For `CC(NC(C)(C)C)C(=O)c1cccc(Cl)c1` (stereo not drawn) [Bupropion, reference compound], the “AD50, nicotine-induced antinociception” value [2] was 8 μmol/hg, the “Blockade of nicotine-induced antinociception (in words)” value [2] was “dose-dependently blocked” and the “Relative potency in blocking nicotine's antinociceptive effect (in words, comparator in the value)” value (from here on “Relative potency”) [2] was “as potent as GBR 12909”.

In the case of `Cn1c(=O)c2c(ncn2C)n(C)c1=O` [Caffeine, reference compound], the “AD50, nicotine-induced antinociception” value [2] is reported as 32.4 μmol/hg and the “Blockade of nicotine-induced antinociception (in words)” value [2] is reported as “blocked nicotine-induced antinociception”.

For `CO[C@H]1CC=C2CCN3CCC4=C(CC(=O)OC4)[C@]23C1` [DHβE, Dihydro-β-erythroidine], the “Effect of higher doses on mouse spontaneous activity” value [4] was “significantly decreased mouse spontaneous activity”.

For `CNCCC(Oc1ccc(C(F)(F)F)cc1)c1ccccc1` (stereo not drawn) [Fluoxetine, reference compound], the “Tail-flick, % blockade @ dose” value ([2]; @ 86.7 μmol/hg) was 15% @ 86.7 and the “Blockade of nicotine-induced antinociception (in words)” value [2] was “failed to significantly block”.

For `Fc1ccc(C(OCCN2CCN(CCCc3ccccc3)CC2)c2ccc(F)cc2)cc1` [GBR 12909, reference compound], the “AD50, nicotine-induced antinociception” value [2] was 8.4 μmol/hg.

In the case of `CCN(CC)CC(=O)Nc1c(C)cccc1C` [Lidocaine, reference compound], the “Tail-flick, % blockade @ dose” value ([2]; @ 75 μmol/hg) is reported as 7% @ 75 and the “Blockade of nicotine-induced antinociception (in words)” value [2] is reported as “failed to significantly block”.

In the case of `COC(=O)C(c1ccccc1)C1CCCCN1` (stereo not drawn) [Methylphenidate, reference compound], the “Tail-flick, % blockade @ dose” value ([2]; @ 74 μmol/hg) is reported as 5% @ 74 and the “Blockade of nicotine-induced antinociception (in words)” value [2] is reported as “failed to block”.

With `CNCCC(Oc1ccccc1OC)c1ccccc1` (stereo not drawn) [Nisoxetine, reference compound] the “AD50, nicotine-induced antinociception” value [2] was 7.4 μmol/hg.

In the case of `CN1Cc2c(N)cccc2C(c2ccccc2)C1` (stereo not drawn) [Nomifensine, reference compound], the “AD50, nicotine-induced antinociception” value [2] is reported as 1.7 μmol/hg, the “Blockade of nicotine-induced antinociception (in words)” value [2] is reported as “dose-dependently blocked” and the “Relative potency” value [2] is reported as “five times more potent than GBR 12909”.

With `CCN(CC)CCOC(=O)c1ccc(N)cc1` [Procaine, reference compound] the “Tail-flick, % blockade @ dose” value ([2]; @ 75 μmol/hg) was 5% @ 75 and the “Blockade of nicotine-induced antinociception (in words)” value [2] was “failed to significantly block”.

In the case of `COC(=O)C1C2CC[C@H](C[C@@H]1c1ccc(N)cc1)N2C` (stereo partly drawn) [RTI-29], the IC50 (Dopamine transporter) is given as 9.8 nM, the “AD50 Tail-Flick” value [2] is given as 6.8 μmol/hg and the “Relative potency” value [2] is given as “one-half as potent as cocaine; also recorded: approximately the same activity as WIN 35,065-2”. The IC50 [5] was 151 nM and the IC50 (Serotonin transporter) was 5110 nM.

In the case of `COC(=O)[C@H]1[C@@H](c2ccc(Cl)cc2)C[C@H]2CC[C@H]1N2C` [RTI-31], the “AD50 Tail-Flick” value [2] is reported as 7.2 μmol/hg, the “AD50 Hypothermia” value [6] is reported as 1.1 μmol/hg and the “AD50, blockade of nicotine-induced hypothermia” value [6] is reported as 1.1 µmol/kg. For the same molecule, the “Blockade of nicotine-induced hypothermia (in words)” value [6] was “significantly blocked” and the IC50 (Serotonin transporter) was 44.5 nM.

For `COC(=O)[C@H]1[C@@H](c2ccc(C)cc2)C[C@@H]2CC[C@H]1N2C` [RTI-32], the IC50 (Dopamine transporter) is listed as 1.7 nM, the “AD50 Tail-Flick” value [2] is listed as 2.0 μmol/hg and the IC50 [5] is listed as 60 nM. For the same molecule, the “AD50 Hypothermia” value [6] was 31.7 μmol/hg and the “Blockade of nicotine-induced hypothermia (in words)” value [6] was “significantly blocked”.
